Several values for one entry are separate records, joined by “and”; a condition that tells them apart may be missing. Identical values can stand only once.
Details: Liquid, Closed cell (Static) method

FC(F)CC(F)(F)F [1,1,1,3,3-pentafluoropropane]
Details | vapor or sublimation pressure [kPa]
235.65 K | 6.9
237.61 K | 7.83
239.61 K | 8.89
241.65 K | 10.09
243.57 K | 11.33
245.57 K | 12.77
247.67 K | 14.43
249.72 K | 16.22
251.16 K | 17.6
251.64 K | 18.05
252.68 K | 19.12
253.7 K | 20.23
255.59 K | 22.39
256.66 K | 23.69
257.56 K | 24.84
259.6 K | 27.62
261.27 K | 30.07
261.47 K | 30.38
261.62 K | 30.62
263.88 K | 34.3
265.69 K | 37.48
266.4 K | 38.77
267.21 K | 40.32
267.51 K | 40.9
267.65 K | 41.19
269.61 K | 45.21
271.59 K | 49.58
271.73 K | 49.9
272.61 K | 51.93
273.73 K | 54.67
275.73 K | 59.81
277.71 K | 65.28
277.74 K | 65.39
279.71 K | 71.23
279.72 K | 71.27
281.62 K | 77.24
281.74 K | 77.66
282.67 K | 80.74
283.01 K | 81.9
283.62 K | 84.01
285.6 K | 91.2
287.57 K | 98.81
287.58 K | 98.82
287.63 K | 99.06
289.64 K | 107.32
291.68 K | 116.25
292.11 K | 118.22
292.56 K | 120.29
293.02 K | 122.46
294.05 K | 127.38
296.05 K | 137.42
297.68 K | 146.08
298.07 K | 148.16
299.99 K | 158.97
302.22 K | 172.36
302.61 K | 174.75
302.82 K | 176.04
306.06 K | 197.31
308.24 K | 212.7
312.05 K | 241.93
314.67 K | 263.68
316.8 K | 282.34
318.62 K | 299.22
321.02 K | 322.69
324.94 K | 363.8
326.92 K | 386.02
328.21 K | 401
328.88 K | 409.17
332.34 K | 452.27
334.54 K | 481.58
335.06 K | 488.66
337.05 K | 516.55
337.07 K | 516.91
337.71 K | 526.04
339.46 K | 552.03
340.65 K | 570.3
340.66 K | 570.45
343.11 K | 609.1
344.74 K | 636.25
345.11 K | 642.16
347.04 K | 675.54
348.61 K | 703.69
349.13 K | 713.08
349.32 K | 716.41
351.61 K | 759.56
363.48 K | 1014
365.4 K | 1060.6
368.8 K | 1147.1
371.52 K | 1219.9
373.61 K | 1278.4
374.58 K | 1306
375.9 K | 1344.6
378.5 K | 1422.7
380.59 K | 1487.9
380.96 K | 1500
383.23 K | 1573.6
386.07 K | 1669.5
388.53 K | 1757
391.15 K | 1853.4
393.55 K | 1945
394.58 K | 1985.6
396.2 K | 2050.7
398.69 K | 2153.7
401.04 K | 2254.6
402.98 K | 2340.8
404.3 K | 2400.9
404.32 K | 2401.7
405.05 K | 2435.4
407.08 K | 2531.5
408.53 K | 2601.7
409.04 K | 2626.5
409.43 K | 2646
411.13 K | 2731.4
413.25 K | 2841.1
414.11 K | 2886.6
414.65 K | 2916.1
415.27 K | 2949.2
417.28 K | 3060.7
419.31 K | 3176.2
420.09 K | 3221.7
422.02 K | 3337.1
422.45 K | 3363
424.01 K | 3459.9
424.32 K | 3479.2
424.52 K | 3491.6
426.47 K | 3617.9
427.08 K | 3658.3

FC(F)(F)CC(F)(F)F [1,1,1,3,3,3-hexafluoropropane]
Details | vapor or sublimation pressure
239.02 K | 20.71 kPa
240.1 K | 21.95 kPa
242.86 K | 25.66 kPa
243.17 K | 26.02 kPa
243.26 K | 26.19 kPa
244.9 K | 28.6 kPa
247.01 K | 31.96 kPa
249.11 K | 35.66 kPa
249.3 K | 35.98 kPa
251.19 K | 39.62 kPa
253.11 K | 43.66 kPa
253.18 K | 43.74 kPa
253.29 K | 43.96 kPa
253.33 K | 44.11 kPa
255.21 K | 48.33 kPa
257.22 K | 53.21 kPa
259.25 K | 58.54 kPa
261.09 K | 63.74 kPa
262.94 K | 69.34 kPa
263.1 K | 69.79 kPa
263.2 K | 70.19 kPa
264.08 K | 72.93 kPa
264.88 K | 75.59 kPa
266.95 K | 82.8 kPa
269.03 K | 90.55 kPa
271.1 K | 98.85 kPa
273.22 K | 107.93 kPa
273.31 K | 108.24 kPa
273.32 K | 108.34 kPa
273.4 K | 108.71 kPa
275.23 K | 117.09 kPa
277.32 K | 127.3 kPa
279.29 K | 137.56 kPa
280.96 K | 146.78 kPa
283.24 K | 160.12 kPa
283.27 K | 160.26 kPa
285.26 K | 172.59 kPa
287.23 K | 185.57 kPa
289.23 K | 199.5 kPa
291.2 K | 214 kPa
293.16 K | 229.27 kPa
293.29 K | 230.28 kPa
294.32 K | 238.65 kPa
295.26 K | 246.45 kPa
297.25 K | 263.72 kPa
299.35 K | 282.86 kPa
301.4 K | 302.67 kPa
303.06 K | 319.32 kPa
303.24 K | 321.23 kPa
303.3 K | 321.84 kPa
303.55 K | 324.31 kPa
305.21 K | 342.11 kPa
306.13 K | 352.04 kPa
307.21 K | 364.17 kPa
307.88 K | 372.01 kPa
308.18 K | 375.53 kPa
308.2 K | 375.7 kPa
309.52 K | 391.11 kPa
311.21 K | 412.03 kPa
311.29 K | 412.84 kPa
312.22 K | 424.67 kPa
313.16 K | 436.99 kPa
313.29 K | 438.48 kPa
313.85 K | 445.61 kPa
315.31 K | 465.57 kPa
317.16 K | 491.51 kPa
319.27 K | 522.37 kPa
320.93 K | 547.63 kPa
321.21 K | 552.1 kPa
323.44 K | 587.43 kPa
325.87 K | 628.19 kPa and 628.25 kPa
327.21 K | 651.86 kPa
328.24 K | 669.95 kPa
329.19 K | 687.47 kPa
330.27 K | 707.58 kPa
330.43 K | 710.54 kPa
330.87 K | 718.92 kPa
332.2 K | 744.56 kPa
332.59 K | 752.25 kPa
335.42 K | 809.53 kPa
337.41 K | 851.82 kPa
337.88 K | 862 kPa
339.87 K | 906.21 kPa
341.92 K | 953.67 kPa
343.98 K | 1002.9 kPa
345.61 K | 1043.5 kPa
346.25 K | 1059.7 kPa
348.23 K | 1111.2 kPa
350.37 K | 1168.7 kPa
352.05 K | 1215.7 kPa
352.45 K | 1226.9 kPa
353.22 K | 1249.3 kPa
355.64 K | 1320.5 kPa
356.7 K | 1352.6 kPa
359.21 K | 1431.4 kPa
361.34 K | 1500.8 kPa
363.46 K | 1572.3 kPa
365.6 K | 1647.1 kPa
367.45 K | 1714.4 kPa
369.49 K | 1790.5 kPa
371.35 K | 1862.2 kPa
372.12 K | 1892.8 kPa
373.44 K | 1945.6 kPa
373.47 K | 1946.8 kPa
374.62 K | 1994.1 kPa
375.47 K | 2029.4 kPa
377.6 K | 2120.2 kPa
378.14 K | 2144.1 kPa
379.74 K | 2214.5 kPa
381.83 K | 2310.2 kPa
383.87 K | 2406.7 kPa
385.8 K | 2500.8 kPa
387.8 K | 2601.6 kPa
390.19 K | 2726.9 kPa
392.05 K | 2828.1 kPa
393.47 K | 2907.6 kPa
393.73 K | 2922.2 kPa
394.04 K | 2940 kPa
396.05 K | 3057 kPa
396.52 K | 3085.8 kPa
397.97 K | 3174.2 kPa

FC(C(F)(F)F)C(F)(F)F [1,1,1,2,3,3,3-heptafluoropropane]
Details | vapor or sublimation pressure [kPa]
233.8 K | 33.41
235.53 K | 36.68
237.5 K | 40.7
237.93 K | 41.62
239.21 K | 44.45
241.12 K | 48.94
243.06 K | 53.89
245.07 K | 59.45
247.09 K | 65.47
247.15 K | 65.66
249.1 K | 71.95
251.21 K | 79.25
253.11 K | 86.34
255.19 K | 94.66
257.15 K | 103.11
257.2 K | 103.29
258.2 K | 107.8
259.06 K | 111.83
261.03 K | 121.45
262.97 K | 131.55
265.23 K | 144.08
267.13 K | 155.39
269.15 K | 168.13
271.12 K | 181.25
271.9 K | 186.72
273.22 K | 196.14
275.23 K | 211.33
277.22 K | 227.17
277.55 K | 229.88
279.11 K | 243.04
281.21 K | 261.71
283.19 K | 280.28
283.23 K | 280.58
285.14 K | 299.44
287.16 K | 320.43
287.95 K | 329.02
289.06 K | 341.15
291.11 K | 364.72
292.83 K | 385.4
293.23 K | 390.27
294.98 K | 412.44
297.07 K | 440.12
297.75 K | 449.31
299.11 K | 468.35
301.1 K | 497.27
303.22 K | 529.51
306.1 K | 575.88
308.04 K | 608.64
318.59 K | 813.28
320.55 K | 856.24
321.06 K | 867.63
328.3 K | 1043.7
331.45 K | 1127.8
338.37 K | 1331.1
341.94 K | 1446
348.87 K | 1690.7
352.27 K | 1822.1
359.69 K | 2136.3
360.92 K | 2192.1
371.37 K | 2720.8
371.43 K | 2723.8

From the NIST ThermoML archive (doi:10.1016/j.fluid.2009.08.023)
